Source: DBAASP
≈ marks a conversion by molar mass, not a printed value.

How the values were obtained:
Test in all cases: ≥ marks a high value that may be exact or a test limit, other limits are often not marked, values filed in µg/mL are converted to µM
[1] = tested on: Escherichia coli NBRC 12734
[2] = tested on: Pseudomonas aeruginosa NBRC 3080
[3] = tested on: Enterococcus faecalis NBRC 3989
[4] = tested on: Staphylococcus aureus NBRC 12732
[5] = tested on: Bacillus megaterium ATCC 19213
[6] = tested on: Bacillus subtilis NBRC 3513
[7] = tested on: Klebsiella pneumoniae NBRC 3317
[8] = tested on: Serratia marcescens NBRC 3046
[9] = tested on: Staphylococcus epidermidis NBRC 12933
[10] = tested on: Salmonella typhimurium NBRC 12529
[11] = tested on: Trichophyton simii IP1063-74
[12] = tested on: Cryptococcus neoformans IP960-67
[13] = tested on: Saccharomyces cerevisiae IP118079
[14] = tested on: Candida albicans IP884-65
[15] = tested on: Staphylococcus aureus IP76-25
[16] = tested on: Escherichia coli IP76-24
[17] = tested on: Aeromonas caviae IP67-16T
[18] = tested on: Enterococcus faecalis IP103214
[19] = tested on: Aspergillus niger IP218-53
[20] = tested on: Aspergillus fumigatus IP1025-70
[21] = tested on: Nocardia brasiliensis IP16-80
[22] = tested on: Escherichia coli NIHJ JC-2
[23] = tested on: Pseudomonas aeruginosa U-31
[24] = tested on: Bacillus subtilis PCI 219
[25] = tested on: Staphylococcus aureus FDA 209P
[26] = tested on: Candida albicans IOC 4558
[27] = tested on: Aspergillus fumigatus IOC 4526
[28] = tested on: Cryptococcus neoformans ATCC 90112
[29] = tested on: Trichosporon sp. IOC 4569
[30] = tested on: Candida parapsilosis IOC 4564
[31] = tested on: Trichophyton rubrum IOC 4527
[32] = tested on: Micrococcus luteus A270
[33] = tested on: Cryptococcus neoformans IOC 4528
[34] = tested on: Pseudomonas aeruginosa ATCC 27853
[35] = tested on: Staphylococcus aureus ATCC 29213
[36] = tested on: Escherichia coli SBS 363
[37] = tested on: Candida albicans ATCC 36802
[38] = tested on: Candida krusei IOC 4559
[39] = tested on: Candida glabrata IOC 4565
[40] = tested on: Candida tropicalis IOC 4560
[41] = tested on: Micrococcus luteus NBRC 12708
[42] = tested on: Carnobacterium mobile
[43] = tested on: Fusarium oxysporum

Question: What does the source list for `CC[C@H](C)[C@H](NC(=O)[C@H](C)N)C(=O)N[C@@H](Cc1ccccc1)C(=O)N[C@H](C(=O)N[C@@H](Cc1ccccc1)C(=O)N[C@H](C(=O)N[C@@H](CCCN=C(N)N)C(=O)N[C@@H](Cc1c[nH]c2ccccc12)C(=O)N[C@@H](CC(C)C)C(=O)N[C@@H](CC(C)C)C(=O)N[C@@H](CCCCN)C(=O)N[C@@H](CC(C)C)C(=O)NCC(=O)N[C@@H](Cc1cnc[nH]1)C(=O)N[C@@H](Cc1cnc[nH]1)C(=O)NCC(=O)N[C@@H](CCCN=C(N)N)C(=O)N[C@@H](C)C(=O)N1CCC[C@H]1C(=O)N1CCC[C@H]1C(=O)O)[C@@H](C)CC)[C@@H](C)CC` [AIFIFIRWLLKLGHHGRAPP]?
Answer: MIC [1]: ≥ 128 µM; MIC [2]: ≥ 128 µM; MIC [3]: ≥ 128 µM; MIC [4]: 2 µM (≈ 4.69 µg/mL); MIC [5]: 4 µM (≈ 9.37 µg/mL); MIC [6]: 8 µM (≈ 18.7 µg/mL); MIC [7]: ≥ 128 µM; MIC [8]: ≥ 128 µM; MIC [9]: 16 µM (≈ 37.5 µg/mL); MIC [10]: ≥ 128 µM

Question: For `CC[C@H](C)[C@H](NC(=O)CNC(=O)[C@H](CCCCN)NC(=O)[C@H](CC(C)C)NC(=O)[C@H](CCSC)NC(=O)[C@H](CC(N)=O)NC(=O)[C@H](CCCCN)NC(=O)[C@H](Cc1c[nH]c2ccccc12)NC(=O)[C@H](CC(C)C)NC(=O)[C@H](C)N)C(=O)NCC(=O)N[C@@H](CCCCN)C(=O)N[C@@H](CC(C)C)C(=O)N[C@@H](C)C(=O)NCC(N)=O` [ALWKNMLKGIGKLAG], which MIC [11] is on record?
Answer: Its MIC is 30 µM (≈ 48 µg/mL).

Question: What about the MIC [12] of the same molecule?
Answer: The MIC was 3 µM (≈ 4.8 µg/mL).

Question: And the MIC [13]?
Answer: The MIC was 10 µM (≈ 16 µg/mL).

Question: And the MIC [14]?
Answer: The MIC was 20 µM (≈ 32 µg/mL).

Question: And the MIC [15]?
Answer: Its MIC is no less than 150 µM.

Question: What about the MIC [16] of the same molecule?
Answer: The MIC was 3 µM (≈ 4.8 µg/mL).

Question: What about the MIC [17] of the same molecule?
Answer: The MIC was 3 µM (≈ 4.8 µg/mL).

Question: And the MIC [18]?
Answer: Its MIC is 3 µM (≈ 4.8 µg/mL).

Question: And the MIC [19]?
Answer: Its MIC is no less than 40 µM.

Question: What about the MIC [20] of the same molecule?
Answer: Its MIC is 20 µM (≈ 32 µg/mL).

Question: And the MIC [21]?
Answer: Its MIC is no less than 150 µM.

Question: With `CC(C)C[C@H](NC(=O)[C@H](CC(C)C)NC(=O)[C@H](CCCCN)NC(=O)[C@H](CC(C)C)NC(=O)[C@H](CC(C)C)NC(=O)[C@H](CCCCN)NC(=O)[C@H](CCCCN)NC(=O)[C@H](Cc1c[nH]c2ccccc12)NC(=O)[C@H](CC(C)C)NC(=O)[C@H](CCCCN)NC(=O)[C@H](CC(C)C)NC(=O)[C@H](CC(C)C)NC(=O)[C@H](CC(C)C)NC(=O)[C@H](CCCCN)NC(=O)[C@H](CC(C)C)NC(=O)[C@H](CC(C)C)NC(=O)[C@@H](N)CCCCN)C(=O)N[C@@H](CCCCN)C(=O)O` [KLLKLLLKLWKKLLKLLK] as the molecule, how does the MIC [22] read?
Answer: Its MIC is no less than 44.8 µM.

Question: And the MIC [23]?
Answer: Its MIC is no less than 44.8 µM.

Question: And the MIC [24]?
Answer: The MIC was no less than 44.8 µM.

Question: What about the MIC [25] of the same molecule?
Answer: The MIC was no less than 44.8 µM.

Question: With `CSCC[C@H](NC(=O)[C@@H](N)CCCCN)C(=O)N[C@@H](CC(=O)O)C(=O)N[C@@H](CO)C(=O)N[C@@H](CCCN=C(N)N)C(=O)N[C@@H](Cc1c[nH]c2ccccc12)C(=O)N[C@@H](CCCN=C(N)N)C(=O)N[C@@H](Cc1c[nH]c2ccccc12)C(=O)N[C@@H](CCCCN)C(=O)N[C@@H](CO)C(=O)N[C@@H](CO)C(=O)N[C@@H](CCCCN)C(=O)N[C@@H](CCCCN)C(=O)O` [KMDSRWRWKSSKK] as the molecule, how does the MIC [26] read?
Answer: Its MIC is no less than 46.4 µM.

Question: What about the MIC [27] of the same molecule?
Answer: The MIC was no less than 58 µM.

Question: What about the MIC [28] of the same molecule?
Answer: Its MIC is 4.92 µM (≈ 8.49 µg/mL).

Question: And the MIC [29]?
Answer: The MIC was no less than 32.8 µM.

Question: And the MIC [30]?
Answer: The MIC was no less than 46.4 µM.

Question: And the MIC [31]?
Answer: Its MIC is no less than 58 µM.

Question: What about the MIC [32] of the same molecule?
Answer: The MIC was 4.92 µM (≈ 8.49 µg/mL).

Question: What about the MIC [33] of the same molecule?
Answer: The MIC was 4.92 µM (≈ 8.49 µg/mL).

Question: What about the MIC [34] of the same molecule?
Answer: Its MIC is 16.4 µM (≈ 28.3 µg/mL).

Question: And the MIC [35]?
Answer: The MIC was greater than 23.2 µM.

Question: What about the MIC [36] of the same molecule?
Answer: The MIC was no less than 46.4 µM.

Question: And the MIC [37]?
Answer: Its MIC is no less than 58 µM.

Question: What about the MIC [38] of the same molecule?
Answer: Its MIC is no less than 32.8 µM.

Question: What about the MIC [39] of the same molecule?
Answer: Its MIC is no less than 46.4 µM.

Question: And the MIC [40]?
Answer: The MIC was no less than 46.4 µM.

Question: Which results are given for `CC[C@H](C)[C@@H]1NC(=O)[C@H](C)NC(=O)[C@H](CC(C)C)NC(=O)[C@@H]2CSSC[C@@H](C(=O)N[C@@H](CCCN=C(N)N)C(=O)N[C@@H](CCCN=C(N)N)C(=O)O)NC(=O)[C@H](C(C)C)NC(=O)[C@@H]3CSSC[C@H](NC(=O)[C@H](CC(C)C)NC(=O)[C@H](CO)NC(=O)[C@H](Cc4cnc[nH]4)NC(=O)[C@H](CC(N)=O)NC(=O)[C@H](C)NC(=O)[C@H](C)NC(=O)[C@H](Cc4ccccc4)NC(=O)CNC(=O)[C@H](CCCCN)NC(=O)[C@H](C)NC(=O)[C@H](CCC(=O)O)NC(=O)[C@H](Cc4ccccc4)NC(=O)[C@H](CO)NC(=O)[C@H](CC(C)C)NC(=O)[C@H](CC(C)C)NC(=O)[C@H](CC(=O)O)NC(=O)[C@@H](NC(=O)[C@@H](NC(=O)[C@@H](N)CC(C)C)[C@@H](C)O)CSSC[C@H](NC(=O)[C@H](C)NC(=O)CNC(=O)CNC(=O)[C@H](CCCCN)NC(=O)[C@H](CCCN=C(N)N)NC(=O)CNC1=O)C(=O)N[C@@H](CCC(N)=O)C(=O)N[C@@H](CC(N)=O)C(=O)NCC(=O)N[C@@H](C(C)C)C(=O)N3)C(=O)N[C@@H](C)C(=O)N[C@@H](C)C(=O)N[C@@H](Cc1cnc[nH]1)C(=O)N2` [LTCDLLSFEAKGFAANHSLCAAHCLAIGRKGGACQNGVCVCRR]?
Answer: MIC [4]: 0.112 µM; MIC [41]: 1.12 µM

Question: Which MIC [42] does the source give for `CSCC[C@H](N)C(=O)N[C@@H](C)C(=O)N[C@@H](C)C(=O)N[C@@H](CCCN=C(N)N)C(=O)N[C@@H](C)C(=O)N[C@@H](C)C(=O)N[C@@H](CCCN=C(N)N)C(=O)N[C@@H](CC(C)C)C(=O)N[C@@H](C)C(=O)N[C@@H](C)C(=O)N[C@@H](CCCN=C(N)N)C(=O)N[C@@H](CC(C)C)C(=O)N[C@@H](C)C(=O)N[C@@H](CCCN=C(N)N)C(=O)N[C@@H](CC(C)C)C(=O)N[C@@H](C)C(=O)N[C@@H](CC(C)C)C(=O)N[C@@H](CCCN=C(N)N)C(=O)N[C@@H](C)C(=O)N[C@@H](CC(C)C)C(=O)O` [MAARAARLAARLARLALRAL] here?
Answer: The MIC was 0.0025 µM (≈ 0.00534 µg/mL).

Question: And the MIC [43]?
Answer: The MIC was 0.1 µM (≈ 0.214 µg/mL).
